The values that follow come from article PMC12073497 (Molecules, 2025).

Values joined by “and” are separate entries in the source; they are usually repeats but may differ in a detail not shown here. Equal entries are not always repeated.

One experiment deals with α-glucosidase (Sigma, type III, from yeast) (Saccharomyces cerevisiae, UniProt P53341). Description: α-Glucosidase inhibition assay. The class given is biochemical. Particulars: means of triplicate ± SEM.
Sequence of α-glucosidase (Sigma, type III, from yeast) (P53341 whole entry): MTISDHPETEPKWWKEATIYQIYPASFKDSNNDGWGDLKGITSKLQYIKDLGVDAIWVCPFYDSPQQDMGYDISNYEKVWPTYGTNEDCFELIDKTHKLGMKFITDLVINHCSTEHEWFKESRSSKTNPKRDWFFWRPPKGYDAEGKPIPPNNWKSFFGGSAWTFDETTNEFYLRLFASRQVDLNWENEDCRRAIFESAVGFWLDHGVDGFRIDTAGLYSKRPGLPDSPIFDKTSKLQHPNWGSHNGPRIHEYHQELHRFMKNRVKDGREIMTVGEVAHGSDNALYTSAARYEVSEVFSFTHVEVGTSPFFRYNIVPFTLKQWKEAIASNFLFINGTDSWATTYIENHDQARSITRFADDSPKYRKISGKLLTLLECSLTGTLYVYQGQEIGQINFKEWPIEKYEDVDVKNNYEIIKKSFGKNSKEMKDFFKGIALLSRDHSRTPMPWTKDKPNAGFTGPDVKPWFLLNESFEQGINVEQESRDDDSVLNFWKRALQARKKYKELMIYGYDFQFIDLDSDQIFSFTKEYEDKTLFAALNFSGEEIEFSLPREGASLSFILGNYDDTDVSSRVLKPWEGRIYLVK
Description: In this background, according to the standard protocol [51], we examined the prepared crown ether molecules 10a–d along with parent precursor FABE 8 and the novel intermediate 7 for their in vitro α-glucosidase inhibition potential.
The protocol for the α-Glucosidase inhibition assay is built on the formation of product as a result of substrate breakdown, detected by absorbance measurement [69]. In the first step, an enzyme α-glucosidase (Sigma, type III, from yeast) was prepared in buffer solution A (0.1 mol/L potassium phosphate, 3.2 mmol/L-MgCl2, pH = 6.8) (0.1 units/mL) mixed with p-nitrophenyl-α-D-glucopyranoside dissolved to obtain the desired concentration of substrate of 6 mmol/L. Another Buffer solution B (102 µL) was prepared by mixing (0.5 M KH2PO4, 16 mmol/L-MgCl2, pH = 6.8) along with 120 µL of sample solution (0.6 mg/mL in dimethyl sulfoxide), 282 µL of water and 200 µL of substrate. In the next step, 200 µL of enzyme was added in the same reaction mixture, incubated for 5 min at 37 °C. […] The activity of enzyme inhibition was measured at 410 nm by its absorbance. […] The inhibition% is equal to Ac − As/Ac × 100, where Ac is the absorbance (control), and As is the absorbance (Sample).
Take “Butyl(2Z)-2-[(3aS,27S,28aS,28bS,29S)-27-(acetyloxy)-3a,28a,28b,29-tetramethyltetracosahydro-3,6-methanocyclopenta[3,4] naphtho[1,8-st][1,3,6,9,12,15,18]heptaoxacyclotetracosin-26(1H)-ylidene]-6- methylhept-5-enoate [Compound 10d]”: the IC50 (commonly the midpoint of a concentration-inhibition curve) was 54.3 ± 0.1 µM.

System in another experiment: not listed separately
Description: DPPH radical scavenging (antioxidant) assay. Conditions: means of triplicate ± SEM. The format is biochemical. From the text:
Oxidative stress is an imbalance between in vivo generated reactive oxygen/ nitrogen species (ROS/NOS) and the cellular antioxidant defenses. Oxidative stress is connected with more than one hundred illnesses that include cardiovascular, cancer, neurogenerative diseases, hypertension, atherosclerosis, and diabetes mellitus. Antioxidants decrease the cellular level of ROS and thus play a significant role in preventing related diseases. Antioxidants react with ROS through three possible mechanisms: (i) hydrogen transfer, (ii) electron transfer, and (iii) metal chelation. DPPH radical scavenging assay relies on the electron/hydrogen atom transfer (mixed) mechanism. The prepared crown ethers with variable cavity sizes 10a–d, parent precursor (FABE) 8, and the novel intermediate 7 were examined for antioxidant behavior using the DPPH radical scavenging protocol, following the literature, and the results are shown in Table 1.
Gulcin et al. proposed a method for the free radical scavenging activity (antioxidant activity) using 1,1-diphenyl-2-picryl-hydrazil (DPPH). An ethanolic solution of DPPH was prepared at a concentration of 0.3 mM. In the next step, different concentrations of each sample were prepared in ethanol, ranging from (62.5–500 μg) by mixing 5 microliters of each sample with 95 µL of DPPH solution. The resulting mixture was transferred to 96-well plates and incubated for 30 min at 37 °C. A microtiter plate reader (Spectramax plus 384 Molecular Device, San Jose, CA, USA) was used to measure the absorbance at 515 nm, and the radical scavenging activity (%) was compared with the methanol-treated control. The standard for the protocol was Butyl hydroxyanisole (BHA). DPPH scavenging effect (%) = Ac − As/Ac × 100, where Ac is the absorbance of the control (DMSO-treated), and As is the absorbance of the sample.
For orientation: Loss of DPPH colour is used to gauge radical scavenging.
For `COc1ccc(O)cc1C(C)(C)C` [Butylated hydroxyanisole, reference compound], the 50% inhibitory concentration (IC50) stood at 44.2 ± 0.3 µM.

`CCCCOC(=O)/C(CCC=C(C)C)=C1\[C@@H](OC(C)=O)C[C@@]2(C)[C@@H]1CC(O)[C@@H]1[C@@]3(C)CCC(O)[C@@H](C)C3CC[C@@]12C` (some centres unmarked) [Compound 8, Butyl(2Z)-2-[(4a,8a,14b,16b)-16-(acetyloxy)-3,11-dihydroxy-4,8,10,14-tetramethylgonan-17-ylidene]-6-methylhept-5-enoate] showed an IC50 of 54.6 ± 0.2 µM.

On to `CCCCOC(=O)C(CCC=C(C)C)=C1C(OC(C)=O)CC2(C)C1CC1OCCOCCOC3CCC4(C)C(CCC2(C)C14)C3C` [Compound 10a, Butyl(2Z)-2-[(3aS,16S,17aS,17bS,18S)-16-(acetyloxy)-3a,17a,17b,18-tetramethyloctahydro-3,6 methanocyclopenta[3,4]naptho[1,8hi][1,4,7]trioxyacylotridecin-15(1H)-ylidene]-6-methylhept-5-enoate], for which the IC50 amounted to 65.5 ± 0.3 µM.

Turning to `CCCCOC(=O)/C(CCC=C(C)C)=C1/C2CC3OCCOCCOCCOC4CC[C@@]5(C)C(CC[C@@](C)(C35)[C@@]2(C)C[C@@H]1OC(C)=O)[C@@H]4C` (stereo partly drawn) [Compound 10b, Butyl(2Z)-2-[(3aS,19S,20aS,20bS,21S)-19-(acetyloxy)-3a,20a,20b,21-tetramethylicosahydro-3,6-methanocyclopenta[3,4]naphtho[1,8-kl][1,4,7,10]tetraoxacyclohexadecin-18(1H)-ylidene]-6-methylhept-5-enoate], the IC50 was 22.5 µM and 32.1 µM.

In the case of `CCCCOC(=O)/C(CCC=C(C)C)=C1/C2CC3OCCOCCOCCOCCOC4CC[C@@]5(C)C(CC[C@@](C)(C35)[C@@]2(C)C[C@@H]1OC(C)=O)[C@@H]4C` (stereo partly drawn) [Compound 10c, Butyl(2Z)-2-[(3aS,22S,23aS,23bS,24S)-22-(acetyloxy)-3a,23a,23b,24-tetramethyldocosahydro-3,6-methanocyclopenta[3,4]naphtho[1,8-no][1,4,7,10,13]pentaoxacyclononadecin-21(1H)-ylidene]-6-methylhept-5-enoate], the IC50 is 32.1 µM and 22.5 µM.

The compound `CCCCOC(O)(OC(=NC1CCCCC1)NC1CCCCC1)/C(CCC=C(C)C)=C1\[C@@H](OC(C)=O)C[C@@]2(C)[C@H]1C[C@@H](O)[C@H]1[C@@]3(C)CC[C@@H](O)[C@@H](C)[C@@H]3CC[C@@]12C` (some centres unmarked) [Intermediate 7] had an IC50 of 32.9 ± 0.4 µM.

Compound “Butyl(2Z)-2-[(3aS,27S,28aS,28bS,29S)-27-(acetyloxy)-3a,28a,28b,29-tetramethyltetracosahydro-3,6-methanocyclopenta[3,4] naphtho[1,8-st][1,3,6,9,12,15,18]heptaoxacyclotetracosin-26(1H)-ylidene]-6- methylhept-5-enoate [Compound 10d]” displayed an IC50 of 45.4 ± 0.9 µM.
